Publication PMC13090440, “Targeting SARS-CoV-2 main protease (3CL^pro) with Paeonia-derived phytochemicals” (In Silico Pharmacology, 2026)
pIC50: −log10 of the molar value.

Molecular target: T1, SARS-CoV-2 3CL^pro (Severe acute respiratory syndrome coronavirus 2, UniProt P0DTD1)
T1 construct: gene rep
Assay: fluorogenic peptide cleavage assay, continuous
Format: biochemical

COc1c(-c2ccc(O)c(O)c2)oc2cc(O)cc(O)c2c1=O [3-O-methylquercetin]
pIC50: 4.36
